Measurements reported in patent US11840686B2, “Modulation of prekallikrein (PKK) expression” (Ionis Pharmaceuticals, Inc., priority 2013, dated 2023).
Strand notation (5' to 3'): a small letter for the sugar, then the base; units joined by * are phosphorothioate-linked, units joined directly phosphodiester-linked; [ ] holds rarer units or linkages, { } end groups; capitals alone tell only the bases. e = 2'-O-(2-methoxyethyl) (MOE); [5mC] = 5-methylcytosine; d = 2'-deoxy (DNA)

Tested on: human PKK mRNA
Test: Antisense inhibition of human PKK mRNA in HepaRG cells, 5,000 nM (Example 2)
Type: cell-based
Outline: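 HepaRG cells (20,000/well) electroporated with 5,000 nM MOE gapmer (phosphorothioate backbone, 5-methylcytosines) and harvested after ~24 h. PKK mRNA measured by qRT-PCR with primer probe set RTS3454, normalized to RIBOGREEN total RNA; percent inhibition versus untreated cells.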

[1] = HepaRG cells, electroporation with 5,000 nM antisense oligonucleotide, approximately 24 hours, PKK mRNA by RT-PCR (RTS3454), relative to untreated control cells, Table 6 experiment
[2] = Table 9 experiment, HepaRG cells, 20,000 cells per well, electroporation with 5,000 nM antisense oligonucleotide, approx. 24 hours, PKK mRNA by RT-PCR (RTS3454), relative to untreated control cells
[3] = Table 10 experiment, HepaRG cells, 20,000 cells per well, electroporation with 5,000 nM antisense oligonucleotide, approx. 24 hours, PKK mRNA by RT-PCR (RTS3454), relative to untreated control cells
[4] = Table 8, HepaRG cells, electroporation with 5,000 nM antisense oligonucleotide, approx. 24 hours, PKK mRNA by RT-PCR (RTS3454), relative to untreated control cells
[5] = HepaRG cells, electroporation, 5,000 nM antisense oligonucleotide, approx. 24 hours, primer probe set RTS3454, relative to untreated control cells, Table 12
[6] = HepaRG cells, electroporation, 5,000 nM antisense oligonucleotide, approx. 24 hours, primer probe set RTS3454, relative to untreated control cells, Table 11
[7] = HepaRG cells, 5,000 nM antisense oligonucleotide, 5-10-5 gapmers, Table 17
[8] = human PKK mRNA, HepaRG cells, 5-10-5 motif oligonucleotides targeting SEQ ID NO: 1 and 10
[9] = Table 13, human PKK mRNA in HepaRG cells, 5-10-5 gapmers
[10] = Table 7, HepaRG cells, electroporation with 5,000 nM antisense oligonucleotide, approx. 24 hours, PKK mRNA by RT-PCR (RTS3454), relative to untreated control cells
[11] = HepaRG cells, 5,000 nM antisense oligonucleotide, 5-10-5 gapmers, Table 16

Substance: 546210 (antisense e[5mC]*e[5mC]*eA*eA*eT*dT*dT*d[5mC]*dT*dG*dA*dA*dA*dG*dG*eG*e[5mC]*eA*e[5mC]*eA) [compound 546210]
- % inhibition [1]: 79%

Substance: 547463 (antisense eT*eA*eG*eG*e[5mC]*dA*dT*dA*dT*dT*dG*dG*dT*dT*dT*eT*eT*eG*eG*eA) [compound 547463]
- % inhibition [2]: 74%
- % inhibition [3]: 84%

Substance: 547435 (antisense e[5mC]*eA*eA*eG*eA*dA*dG*dA*dG*dT*dT*dT*dG*dT*dT*e[5mC]*e[5mC]*eT*e[5mC]*e[5mC]) [compound 547435]
- % inhibition [4]: 85%

Substance: 546426 (eT*e[5mC]*eT*e[5mC]*eT*dG*dG*dT*d[5mC]*dA*dA*dT*d[5mC]*dT*dG*eA*e[5mC]*eT*eA*eG; antisense) [compound 546426]
- % inhibition [5]: 49%

Substance: 546359 (antisense eG*e[5mC]*eA*eT*e[5mC]*dT*dG*dA*dG*d[5mC]*dT*dT*dT*dT*d[5mC]*e[5mC]*eA*eT*e[5mC]*eA) [compound 546359]
- % inhibition [6]: 79%

Substance: 547059 (eG*eG*eG*eT*eA*dT*d[5mC]*dT*dT*d[5mC]*dA*d[5mC]*dT*dG*dT*eT*e[5mC]*e[5mC]*eA*eG; antisense) [compound 547059]
- % inhibition [7]: 12%

Substance: 547660 (eA*eA*e[5mC]*eT*eA*dT*dA*dA*d[5mC]*dA*dG*dT*dA*dT*d[5mC]*eA*e[5mC]*e[5mC]*eG*eT; antisense) [compound 547660]
- % inhibition [8]: 68%

Substance: 546690 (e[5mC]*eT*e[5mC]*eT*eG*d[5mC]*dT*dG*dG*dT*dT*dT*dT*dA*dG*eA*e[5mC]*e[5mC]*eA*e[5mC]; antisense) [compound 546690]
- % inhibition [5]: 44%

Substance: 547338 (antisense eT*e[5mC]*eA*eA*e[5mC]*dT*d[5mC]*d[5mC]*dT*dT*dT*dA*dT*dA*dA*eA*eT*eG*eT*e[5mC]) [compound 547338]
- % inhibition [1]: 71%

Substance: 546804 (eA*e[5mC]*eA*eT*eG*dA*d[5mC]*dT*d[5mC]*d[5mC]*dA*dG*dT*dG*dA*eT*eG*eG*eA*eT; antisense) [compound 546804]
- % inhibition [9]: 57%

Substance: 547638 (eA*eT*eA*eA*e[5mC]*dA*dG*dT*dA*dT*d[5mC]*dA*d[5mC]*dT*dG*eT*eA*e[5mC]*eT*eA; antisense) [compound 547638]
- % inhibition [8]: 87%

Substance: 546302 (antisense eT*eG*eA*eG*eA*dA*dA*dG*dG*dT*dG*dT*dA*dT*d[5mC]*eT*eT*eT*eT*eG) [compound 546302]
- % inhibition [4]: 87%

Substance: 547554 (antisense eG*e[5mC]*eT*e[5mC]*eT*dG*dA*dT*dT*dG*dG*dG*dT*d[5mC]*dA*e[5mC]*e[5mC]*eA*e[5mC]*eA) [compound 547554]
- % inhibition [5]: 50%

Substance: 546803 (e[5mC]*e[5mC]*e[5mC]*e[5mC]*eA*dT*dA*d[5mC]*dA*dT*d[5mC]*dT*dA*dT*dG*e[5mC]*eA*eA*eA*eT; antisense) [compound 546803]
- % inhibition [9]: 40%

Substance: 547372 (eG*eA*eT*eG*eG*dT*d[5mC]*d[5mC]*dG*dA*d[5mC]*dA*d[5mC]*dA*d[5mC]*eA*eA*eA*eA*eG; antisense) [compound 547372]
- % inhibition [10]: 32%

Substance: 547023 (eG*eA*eT*eT*eG*dG*dT*dG*dG*d[5mC]*dG*dG*dG*dA*dT*e[5mC]*eG*eG*eT*eG; antisense) [compound 547023]
- % inhibition [7]: 91%

Substance: 547432 (e[5mC]*e[5mC]*e[5mC]*eA*eG*dT*dG*dT*dT*dA*d[5mC]*dA*d[5mC]*dA*dA*eT*e[5mC]*eT*e[5mC]*eA; antisense) [compound 547432]
- % inhibition [4]: 90%

Substance: 546307 (antisense eT*eA*eT*eA*eG*dT*dT*dT*dT*dG*dG*dT*dG*dA*dA*eT*eA*eA*eT*eA) [compound 546307]
- % inhibition [2]: 12%
- % inhibition [3]: 0%

Substance: 547424 (eA*eG*eA*eG*e[5mC]*dT*d[5mC]*d[5mC]*d[5mC]*dT*dT*dG*dT*dG*dT*e[5mC]*e[5mC]*e[5mC]*eA*eT; antisense) [compound 547424]
- % inhibition [4]: 90%

Substance: 547333 (antisense eT*eG*eT*e[5mC]*eT*d[5mC]*dG*dA*dT*dG*dG*d[5mC]*dA*dA*dG*e[5mC]*eA*e[5mC]*eT*eT) [compound 547333]
- % inhibition [1]: 76%

Substance: 547408 (eT*e[5mC]*eA*e[5mC]*eA*dT*dT*d[5mC]*dA*dA*dT*dT*d[5mC]*dT*dT*e[5mC]*eT*e[5mC]*e[5mC]*eT; antisense) [compound 547408]
- % inhibition [10]: 84%

Substance: 546910 (eT*eA*eA*e[5mC]*eA*dA*dT*dA*dT*d[5mC]*dA*d[5mC]*dT*dG*dT*eA*e[5mC]*e[5mC]*eT*eT; antisense) [compound 546910]
- % inhibition [8]: 82%

Substance: 547350 (antisense eG*eG*e[5mC]*eA*eT*dT*d[5mC]*dT*dT*d[5mC]*dA*dA*d[5mC]*dA*d[5mC]*eT*eG*e[5mC]*eT*eA) [compound 547350]
- % inhibition [1]: 96%

Substance: 546942 (eT*eA*e[5mC]*eA*e[5mC]*dT*dG*dA*dA*d[5mC]*d[5mC]*d[5mC]*d[5mC]*d[5mC]*dT*eT*eA*eG*eG*e[5mC]; antisense) [compound 546942]
- % inhibition [11]: 56%

Substance: 547528 (antisense e[5mC]*eA*e[5mC]*eA*eG*dT*d[5mC]*dA*dT*dG*dG*dA*dG*dA*dT*e[5mC]*eT*e[5mC]*eA*eG) [compound 547528]
- % inhibition [6]: 78%

Substance: 547370 (e[5mC]*eA*eA*eA*eA*dG*d[5mC]*dA*dT*d[5mC]*dT*dG*dG*dA*dG*eT*eG*eA*eG*eA; antisense) [compound 547370]
- % inhibition [10]: 73%

Substance: 546977 (eG*eT*e[5mC]*e[5mC]*e[5mC]*dG*dA*dA*dG*dA*dG*dT*d[5mC]*dA*dA*eG*eT*e[5mC]*e[5mC]*eA; antisense) [compound 546977]
- % inhibition [11]: 76%

Substance: 547418 (e[5mC]*eA*e[5mC]*eT*eT*dA*d[5mC]*dA*d[5mC]*dT*dT*d[5mC]*dT*d[5mC]*dT*eT*e[5mC]*e[5mC]*eT*eT; antisense) [compound 547418]
- % inhibition [4]: 0%

Substance: 546319 (antisense e[5mC]*eA*eG*eT*eG*dT*dA*dA*dT*dT*d[5mC]*dA*dA*dA*dG*eG*eA*eG*e[5mC]*e[5mC]) [compound 546319]
- % inhibition [2]: 50%
- % inhibition [3]: 61%

Substance: 547539 (antisense eA*eG*eA*eA*e[5mC]*dT*d[5mC]*d[5mC]*dA*dG*d[5mC]*dA*dG*dA*dA*eA*eT*e[5mC]*e[5mC]*eT) [compound 547539]
- % inhibition [5]: 43%

Substance: 547321 (antisense eT*e[5mC]*eA*eA*eG*dG*dA*dA*dT*dG*dT*d[5mC]*d[5mC]*dA*dG*eA*eA*eA*e[5mC]*eT) [compound 547321]
- % inhibition [1]: 53%

Substance: 547737 (eT*eG*eG*eT*eG*dG*dT*dG*dG*dG*dA*dT*dT*dG*dG*eT*eG*e[5mC]*eT*eG; antisense) [compound 547737]
- % inhibition [7]: 59%

Substance: 547708 (antisense eG*e[5mC]*e[5mC]*eA*eG*dG*dA*dG*dA*d[5mC]*dA*dG*d[5mC]*d[5mC]*d[5mC]*eT*eA*e[5mC]*eT*e[5mC]) [compound 547708]
- % inhibition [11]: 67%

Substance: 547470 (antisense eT*e[5mC]*eG*eA*eG*dA*dA*dG*d[5mC]*d[5mC]*d[5mC]*d[5mC]*dA*dT*d[5mC]*e[5mC]*eG*eG*eT*eT) [compound 547470]
- % inhibition [2]: 70%
- % inhibition [3]: 68%

Substance: 547506 (antisense eA*eG*eG*e[5mC]*eT*d[5mC]*dA*dG*dA*dA*dT*dT*dT*dG*dA*e[5mC]*eT*eT*eG*eA) [compound 547506]
- % inhibition [6]: 78%

Substance: 547485 (antisense e[5mC]*eA*eA*eA*e[5mC]*dT*dA*dA*dG*dG*dG*dA*d[5mC]*d[5mC]*dA*e[5mC]*e[5mC]*eT*eG*eA) [compound 547485]
- % inhibition [2]: 49%
- % inhibition [3]: 66%

Substance: 546845 (eT*eG*eT*e[5mC]*e[5mC]*dT*dA*dT*dA*dT*d[5mC]*dA*d[5mC]*dT*dG*eT*e[5mC]*e[5mC]*eT*eA; antisense) [compound 546845]
- % inhibition [9]: 75%

Substance: 546964 (eG*e[5mC]*eG*eA*eT*dT*d[5mC]*d[5mC]*dT*dT*dG*d[5mC]*d[5mC]*dT*d[5mC]*eT*eG*e[5mC]*eT*eG; antisense) [compound 546964]
- % inhibition [11]: 53%

Substance: 547339 (antisense eT*eA*eT*e[5mC]*eA*dA*d[5mC]*dT*d[5mC]*d[5mC]*dT*dT*dT*dA*dT*eA*eA*eA*eT*eG) [compound 547339]
- % inhibition [1]: 42%

Substance: 547439 (antisense eT*e[5mC]*eT*eG*eA*dG*d[5mC]*dT*dG*dT*d[5mC]*dA*dG*d[5mC]*dT*eT*e[5mC]*eA*e[5mC]*e[5mC]) [compound 547439]
- % inhibition [4]: 85%

Substance: 546496 (eA*eT*eG*e[5mC]*eA*dT*dA*d[5mC]*dT*d[5mC]*dG*d[5mC]*d[5mC]*dT*dT*eT*eG*eT*eG*eA; antisense) [compound 546496]
- % inhibition [5]: 54%

Substance: 546211 (antisense eG*eG*e[5mC]*eA*eA*d[5mC]*d[5mC]*dA*dA*dT*dT*dT*d[5mC]*dT*dG*eA*eA*eA*eG*eG) [compound 546211]
- % inhibition [1]: 42%
